Earlier results as cited in the CATMoS acute toxicity set (Mansouri et al. 2021).
Values joined by “and” are separate entries in the source; they are usually repeats but may differ in a detail not shown here. Equal entries are not always repeated.

Experiment: rat acute oral toxicity
Details: in vivo
From the text: […]The data set underlying the modeling effort for this project was initially compiled by NICEATM and U.S. EPA’s CCTE. Briefly, LD50 data were collected from rat acute oral systemic toxicity tests, including limit tests, ranges/confidence intervals, and discrete LD50 values. The full data set included 21,200 LD50 entries for 15,688 substances. […] Data were reviewed to ensure that LD50 values with obvious errors in the extracted data such as unit conversion errors (e.g., comma and decimal separator misplacements) were either fixed or removed. After this review, 16,209 LD50 values remained. Many of the chemicals represented had multiple LD50 entries, requiring that a single representative value per Chemical Abstracts Service Registry Number (CASRN) identifier be defined to facilitate modeling efforts. Based on ATWG feedback and to define the representative LD50 as a protective value while accounting for the distribution across multiple LD50s, the median of the lowest quartile was computed using only discrete LD50 values (omitting limit test data and range and confidence interval data). A detailed summary of the data compilation is available online on the NICEATM webpage dedicated to the collaborative modeling project (NTP 2020).
[…][…] For categorical designations, limit test and range/confidence interval LD50 data were integrated wherever possible. As such, the number of chemicals with end point values/calls varies across the modeling end points (Table 3) based on whether chemicals had representative LD50 values and/or other data. If a chemical had both, the representative value was used to determine categorical calls rather than limit test data. Some data were useable only for certain end points and categories depending on the thresholds. For example, ranges that spanned multiple hazard categories were considered only for the binary (very toxic/nontoxic) end points and omitted from rendering a determination for hazard category assignment.
[…]The final data set comprising 11,992 chemicals was split into training and evaluation sets […], respectively. This process was performed semirandomly by ordering chemicals based on the five end points (categorical and continuous LD50 values) and partitioning every fourth record into the evaluation set accordingly. This approach was taken to ensure an equivalent distribution of the LD50 values and the different hazard categories between the training and the evaluation sets without supervised sampling of the chemicals based on structures (Figure 1A). The sources of the chemical structures were also kept equivalent between the two sets, with chemical structures obtained from DSSTox, being the highest quality, representing over 75% of each set (Figure 1B).

Row | Structure (SMILES) | LD50
1 | CCCCCCCc1ccccc1O | 2750 mg/kg
2 | CN1CCC2(C)c3cc(OC(=O)NCCCCCCCCN4CCOCC4)ccc3N(C)C12 (centres undefined) | 23 mg/kg
3 | OCCN1CCCN(CCCN2c3ccccc3C=Cc3ccccc32)CC1 | 2410 mg/kg
4 | C=CCN(CC=C)C(=O)CCl | 700 mg/kg
5 | CC(=O)OCCCC(=O)CBr | 600 mg/kg
6 | O=C1C(O)N=C(c2ccccc2F)c2cc(Cl)ccc2N1CCO (centres undefined) | 2550 mg/kg
7 | OC(CNCCNCC(O)COc1ccccc1)COc1ccccc1 (centres undefined) | 2920 mg/kg
8 | CCN1CCCC1CNC(=O)c1cc(Cl)cc(Cl)c1OCc1ccccc1 (centres undefined) | 576 mg/kg
9 | CN(C)/N=N/c1ccc(C(N)=O)cc1 | 54 mg/kg
10 | C=CC(=O)NC(C)(C)CS(=O)(=O)O | 16000 mg/kg
11 | COC(C)OC | 6500 mg/kg
12 | O=c1oc2cc(Cl)ccc2n1CO | 2800 mg/kg
13 | CSCC(=O)N(C)C(=O)Oc1ccccc1OC(C)C | 650 mg/kg
14 | CC(=O)OCCC1=CC2CC(C1)C2(C)C (centres undefined) | 3000 mg/kg
15 | CCC=C(C)C=O | 4290 mg/kg
16 | CON(C(=O)c1cc(C)oc1C)C1CCCCC1 | 3780 mg/kg
17 | CCOC(=O)[C@H](CCc1ccccc1)N[C@@H](C)C(=O)N1CCC[C@H]1C(=O)O | 2970 mg/kg
18 | CN1CCC23c4c5ccc(O)c4OC2C(N=[N+]=[N-])CCC3(O)C1C5 (centres undefined) | 190 mg/kg
19 | c1ccc2sc(SNC3CCCCC3)nc2c1 | 5300 mg/kg
20 | C=CC[N@@+]12CC[C@@]34c5ccccc5N5C=C6[C@H]7C[C@H]8[C@@]9(CC[N@@+]8(CC=C)C/C7=C/CO)c7ccccc7N(C=C([C@@H](C[C@@H]31)/C(=C\CO)C2)[C@H]54)[C@@H]69 | 27.6 mg/kg
21 | O=C(O)c1cccc(O)c1O | 1800 mg/kg
22 | CN(C)C(=S)SCN1CCOCC1 | 1500 mg/kg
23 | COc1ccccc1N1CCN(CC=Cc2ccc3c(c2)CCC(=O)N3)CC1 | 500 mg/kg
24 | Cc1csc2c(Cl)cccc12 | 300 mg/kg
25 | COC(=NC#N)OC | 1500 mg/kg

Row | Structure (SMILES) | LD50
26 | O=[N+]([O-])C1(Br)COCOC1 | 455 mg/kg
27 | CC(=Cc1ccccc1)CC(=O)N(CCO)CCO | 1500 mg/kg
28 | CCCCCOC(=O)CCC | 12200 mg/kg
29 | CCCCC(CC)COC(=O)C=CC(=O)OCC(CC)CCCC (centres undefined) | 29200 mg/kg and 14000 mg/kg
30 | C#CCN(C)C1CCc2ccccc21 (centres undefined) | 250 mg/kg
31 | CN(C)CCC(O)(c1ccccc1)c1ccccc1Cl (centres undefined) | 350 mg/kg
32 | COc1cccc(C(=O)CCN[C@@H](C)[C@H](O)c2ccccc2)c1 | 500 mg/kg
33 | CC(C)CNC(=O)NS(=O)(=O)c1ccc(Cl)cc1 | 1100 mg/kg
34 | CC1(C)S[C@@H]2[C@H](NC(=O)Cc3ccccc3)C(=O)N2[C@H]1C(=O)O | 8900 mg/kg and 8000 mg/kg and 6920 mg/kg
35 | O=C(Nc1ccc(Br)cc1)c1cc(Br)ccc1O | 410 mg/kg
36 | CCOc1ccccc1N1CCN(CCC=Cc2ccc3c(c2)CCC(=O)N3)CC1 | 500 mg/kg
37 | Cc1cc(N)ccc1N | 98 mg/kg and 102 mg/kg
38 | CC(CC(C#N)(c1ccccc1)C(C)C)N(C)C (centres undefined) | 250 mg/kg
39 | COc1ccc(OC)c(Cc2cnc3nc(N)nc(N)c3c2C)c1 | 1170 mg/kg
40 | Cc1ncc(CNC(=O)N(CCCl)N=O)c(N)n1 | 113 mg/kg
41 | CCCSc1ccc2[nH]c(NC(=O)OC)nc2c1 | 2400 mg/kg
42 | CCOC(=O)C=C(C)OP(=O)(OCC)OCC | 22 mg/kg
43 | O=C1C(=NNc2ccccc2)C(S(=O)(=O)O)=Cc2cc(S(=O)(=O)O)cc(Nc3nc(Cl)nc(Cl)n3)c21 | 7460 mg/kg
44 | O=[N+]([O-])c1ccc2ccccc2c1 | 4400 mg/kg
45 | CC1(C)OCC(CCl)O1 (centres undefined) | 115 mg/kg
46 | Cc1cc2c(C(C)C)c(O)c(O)c(C=O)c2c(O)c1-c1c(C)cc2c(C(C)C)c(O)c(O)c(C=O)c2c1O | 2320 mg/kg
47 | C#CCOP(=O)(OCCC)c1ccccc1 (centres undefined) | 362 mg/kg
48 | CCCCCCCCCCCC[N+](C)(C)Cc1ccc(CC)cc1 | 700 mg/kg
49 | CCCCC(C)=O | 2590 mg/kg
50 | CNC(=O)OC1C2(C)CCC(C2)C1(C)C (centres undefined) | 500 mg/kg

Row | Structure (SMILES) | LD50
51 | CN1CCCN(C(c2ccccc2)c2ccc(Cl)cc2)CC1 (centres undefined) | 490 mg/kg
52 | OC1CC2CC1C1CC3OC3C21 (centres undefined) | 3130 mg/kg
53 | COc1ccccc1OC(=O)[C@H](C)c1ccc(CC(C)C)cc1 | 2060 mg/kg
54 | Nc1cc(Cl)ccc1Cl | 1600 mg/kg
55 | CN(Sc1ccc([N+](=O)[O-])cc1)C(=O)Oc1cccc2c1OC(C)(C)C2 | 25 mg/kg
56 | N#CCCNc1ccccc1 | 4700 mg/kg
57 | Oc1c(Cl)c(Cl)cc2[nH]c(C(F)(F)F)nc12 | 52 mg/kg
58 | Nc1ccc([N+](=O)[O-])c(Cl)n1 | 1780 mg/kg
59 | CNC(=O)Oc1cc(C(C)C)ccc1Cl | 21 mg/kg
60 | Oc1ccc(Cl)cc1Cc1ccccc1 | 1700 mg/kg
61 | CCOP(=O)(OCC)SCC(=O)NC(C)(C)C#N | 3.5 mg/kg
62 | ClC1=C(Cl)[C@]2(Cl)[C@@H]3[C@@H](Cl)[C@H](Cl)[C@@H](Cl)[C@@H]3[C@@]1(Cl)C2(Cl)Cl (racemic) | 500 mg/kg
63 | CON(C)C(=O)/C=C(\C)OP(=O)(OC)OC | 2 mg/kg
64 | CCOP(=S)(OCC)OC(C)C | 1000 mg/kg
65 | NCCOCCN | 961 mg/kg
66 | C=CC(O)CC#N (centres undefined) | 200 mg/kg
67 | CCOP(N)(=O)SC (centres undefined) | 5 mg/kg
68 | COP(=O)(OC)OC=C(Br)Br | 253 mg/kg
69 | O=C(O)c1cc2ccccc2c(Cc2c(O)c(C(=O)OCCOCCN3CCN(C(c4ccccc4)c4ccc(Cl)cc4)CC3)cc3ccccc23)c1O (centres undefined) | 1740 mg/kg
70 | COP(=O)(OC)OC(C)=CC(=O)Oc1ccc(C)cc1 | 176 mg/kg
71 | CC(C=O)=Cc1ccccc1 | 2050 mg/kg
72 | CCCCOC(=O)C(Cl)(Cl)Oc1ccccc1 | 1500 mg/kg
73 | CNC(=O)c1cnn(C(C)(C)C)c1C#N | 392 mg/kg
74 | CC(Cl)CCC(C)Cl (centres undefined) | 4000 mg/kg
75 | Cc1c(C(C)C)c(=O)n(-c2ccccc2)n1C | 860 mg/kg

Row | Structure (SMILES) | LD50
76 | CCOP(=S)(OCC)ON1C(=O)c2cccc3cccc(c23)C1=O | 500 mg/kg
77 | CN1C(=O)CN=C(c2ccccc2F)c2cc([N+](=O)[O-])ccc21 | 415 mg/kg
78 | CN(C)C(CSC(N)=O)CSC(N)=O | 250 mg/kg and 225 mg/kg
79 | Cc1ccccc1-c1nnc(NN)s1 | 120 mg/kg
80 | CN(C)C1CCCCC1 | 348 mg/kg
81 | CCOC(=O)Nc1ccco1 | 1980 mg/kg
82 | Oc1ccc(Nc2ccc3ccccc3c2)cc1 | 5200 mg/kg
83 | CCCCC(CC)Cc1ccccc1O (centres undefined) | 2460 mg/kg
84 | CCOC(=O)C1(c2ccccc2)CCN(CCOCC2CCCO2)CC1 (centres undefined) | 135 mg/kg
85 | COCC(=O)O | 1000 mg/kg
86 | OCc1c(F)c(F)c(F)c(F)c1F | 900 mg/kg
87 | O=C(O)Cn1c(=O)n(Cc2ccc(Br)cc2F)c(=O)c2ccc(Cl)cc21 | 4250 mg/kg
88 | COc1cc(C)c2[nH]c(=O)sc2c1 | 7580 mg/kg
89 | Oc1ccccc1S | 178 mg/kg
90 | COCc1cc(C(C)(C)C)c(O)c(C(C)(C)C)c1 | 10600 mg/kg
91 | CO[Si](CCCNCCC[Si](OC)(OC)OC)(OC)OC | 3780 mg/kg
92 | C=C(C#N)OC(C)=O | 100 mg/kg
93 | O=C(O)CCCCCCl | 3080 mg/kg
94 | CC(C)(C)NCC(O)COc1cccc2c1CCC(=O)N2 (centres undefined) | 1330 mg/kg
95 | O=CNC(Nc1ccc(Cl)c(Cl)c1)C(Cl)(Cl)Cl (centres undefined) | 2500 mg/kg
96 | OC[C@H]1O[C@@H](n2cnc3c(S)ncnc32)[C@H](O)[C@@H]1O | 900 mg/kg
97 | CCCCCCCCCCCCOC(=O)CS(=O)(=O)O | 700 mg/kg
98 | CCOC(=O)CC(SP(=O)(OC)OC)C(=O)OCC (centres undefined) | 158 mg/kg
99 | CCN(CC)CCCN(c1ccccc1)C1Cc2ccccc2C1 | 525 mg/kg
100 | COc1ccc(C(=O)CCC(=O)O)c2ccccc12 | 1800 mg/kg

Row | Structure (SMILES) | LD50
101 | Cc1cc(C)cc(Cc2ccccc2)c1 | 2330 mg/kg
102 | Cc1ccc(N=CN(C)SN(C)C=Nc2ccc(C)cc2C)c(C)c1 | 300 mg/kg
103 | O=C(O)CSc1cc(Cl)ccc1Cl | 1900 mg/kg
104 | CCC1(c2ccccc2)NC(=O)N(C)C1=O (centres undefined) | 850 mg/kg
105 | O=C(Cl)c1ccc(C(=O)Cl)cc1 | 2500 mg/kg
106 | CCOC(=O)COP(=S)(OCC)OCC | 1000 mg/kg
107 | O=[N+]([O-])c1cc([N+](=O)[O-])c(F)cc1F | 50 mg/kg
108 | Cn1c(=O)c2c(ncn2CCOC(=O)C(C)(C)Oc2ccc(Cl)cc2)n(C)c1=O | 17000 mg/kg
109 | OC(c1ccccc1)(c1ccccc1)C1CCCCN1 (centres undefined) | 180 mg/kg
110 | ClC1=C(Cl)C2(Cl)C3CCCCC3C1(Cl)C2(Cl)Cl (centres undefined) | 100 mg/kg
111 | CSC(C)=NOC(=O)N(C)SN(C(C)C)P1(=S)OCCCO1 | 600 mg/kg
112 | C/C=N/O | 740 mg/kg
113 | O=[N+]([O-])c1ccc(O)c(Cl)c1 | 900 mg/kg
114 | CN1C(C(=O)Nc2nccs2)=C(O)c2ccccc2S1(=O)=O | 136 mg/kg
115 | CCN(CC)CCOc1ccc2nc(N(C)C)sc2c1 | 880 mg/kg
116 | CCOC(=O)C(C(=O)Cc1c(C)n(C(=O)c2ccc(Cl)cc2)c2ccc(OC)cc12)C(=O)OCC | 520 mg/kg
117 | Cc1ccc(NC2=NCCN2)c(Cl)c1 | 420 mg/kg
118 | C=Cc1ccccn1 | 100 mg/kg
119 | CC(C)(O)C#CC(C)(C)O | 9000 mg/kg
120 | CN1CCN(CCCCOc2ccccc2C=Cc2ccccc2)CC1 | 2300 mg/kg
121 | CCN=c1nc(Cl)[nH]c(=NC(C)CC)[nH]1 (centres undefined) | 3000 mg/kg
122 | Nc1c(I)cc(I)c(C(=O)N(CCC(=O)O)c2ccccc2)c1I | 2800 mg/kg
123 | O=C(O)Cc1cc(O)ccc1Nc1c(Cl)cc(O)cc1Cl | 1000 mg/kg
124 | Cc1cc(Cl)ccc1NC(=S)N(C)C | 2500 mg/kg
